Activity calls are given as the source filed them. The rule behind the calls is not given here.
Tests used:
[1] = molecular target: T1, Eukaryotic initiation factor 4A-I (Homo sapiens, UniProt P60842); experiment: Inhibition of eIF4A1 in human MDA-MB-231 cells assessed as inhibition of cellular-translation incubated for 4 hrs by specific tandem sequence motif repeat CAACAA in 5'- UTR containing luciferase reporter gene assay; assay type: cell-based
[2] = molecular target: T1, Eukaryotic initiation factor 4A-I; experiment: Inhibition of eIF4A1 in human MDA-MB-231 cells assessed as inhibition of cellular-translation incubated for 4 hrs by specific tandem sequence motif repeat GGCGGC in 5'- UTR containing luciferase reporter gene assay; assay type: cell-based
[3] = molecular target: T1, Eukaryotic initiation factor 4A-I; experiment: Inhibition of eIF4A1 in human MDA-MB-231 cells assessed as inhibition of cellular-translation incubated for 4 hrs by specific tandem sequence motif repeat CCGCCG in 5'- UTR containing luciferase reporter gene assay; assay type: cell-based
[4] = molecular target: T1, Eukaryotic initiation factor 4A-I; experiment: Inhibition of eIF4A1 in human MDA-MB-231 cells assessed as inhibition of cellular-translation incubated for 4 hrs by specific tandem sequence motif repeat AGAGAG in 5'- UTR containing luciferase reporter gene assay; assay type: cell-based
[5] = molecular target: T1, Eukaryotic initiation factor 4A-I; experiment: Binding affinity to full length recombinant eIF4A1 (unknown origin) assessed as induction ternary complex formation in presence of DNA oligo sequences by measuring Kd for DNA oligo sequences + ATP complex formation SPR assay
HAP1 [6] = experiment: Inhibition of eIF4A1 F163L mutant in human HAP1 cells assessed as reduction in Cyclin D1 protein expression at 5 to 50 nM incubated for 24 hrs by Western blot analysis; assay type: cell-based
[7] = molecular target: T1, Eukaryotic initiation factor 4A-I; experiment: Inhibition of eIF4A1 in human MDA-MB-231 cells assessed as reduction in BCL2 protein expression at 10 to 100 nM incubated for 24 hrs by Western blot analysis; assay type: cell-based
HAP1 [8] = experiment: Inhibition of eIF4A1 F163L mutant in human HAP1 cells assessed as reduction in MCL-1 protein expression at 5 to 50 nM incubated for 24 hrs by Western blot analysis; assay type: cell-based
[9] = molecular target: T1, Eukaryotic initiation factor 4A-I; experiment: Binding affinity to full length recombinant eIF4A1 (unknown origin) assessed as induction ternary complex formation in presence of AGAGAG by measuring half life for AGAGAG + AMP-PNP complex formation SPR assay
MDA-MB-231 [10] = experiment: Induction of apoptosis in human MDA-MB-231 cells assessed as increase in dead cells level incubated for 24 hrs by annexin V and propidium iodide staining based flow cyclometry; assay type: functional, cell-based
Homo sapiens = species: Homo sapiens; experiment: Inhibition of L-type calcium channel diltiazem binding site (unknown origin) at 10 uM relative to control
[11] = molecular target: T1, Eukaryotic initiation factor 4A-I; experiment: Binding affinity to full length recombinant eIF4A1 (unknown origin) assessed as induction ternary complex formation in presence of AGAGAG by measuring half life for AGAGAG + ATP complex formation SPR assay
[12] = molecular target: T1, Eukaryotic initiation factor 4A-I; experiment: Inhibition of eIF4A1 in human HAP1 cells assessed as reduction in MCL-1 protein expression at 5 to 50 nM incubated for 24 hrs by Western blot analysis; assay type: cell-based
[13] = molecular target: T1, Eukaryotic initiation factor 4A-I; experiment: Inhibition of eIF4A1 in human MDA-MB-231 cells assessed as reduction in cyclin D1 protein expression at 10 to 100 nM incubated for 24 hrs by Western blot analysis; assay type: cell-based
[14] = molecular target: T1, Eukaryotic initiation factor 4A-I; experiment: Inhibition of eIF4A1 in human HAP1 cells assessed as reduction in c-MYC protein expression at 5 to 50 nM incubated for 24 hrs by Western blot analysis; assay type: cell-based
MDA-MB-231 [15] = experiment: Induction of cell cycle arrest in human MDA-MB-231 cells assessed as increase in G2/M population incubated for 24 hrs by LIVE/DEAD fixable dead cell staining based flow cyclometry; assay type: functional
HAP1 [16] = experiment: Inhibition of eIF4A1 F163L mutant in human HAP1 cells assessed as reduction in c-MYC protein expression at 5 to 50 nM incubated for 24 hrs by Western blot analysis; assay type: cell-based
MDA-MB-231 [17] = experiment: Induction of apoptosis in human MDA-MB-231 cells assessed as increase in apoptotic cells level incubated for 24 hrs by annexin V and propidium iodide staining based flow cyclometry; assay type: functional, cell-based
[18] = molecular target: T1, Eukaryotic initiation factor 4A-I; experiment: Inhibition of eIF4A1 in human HAP1 cells assessed as reduction in Cyclin D1 protein expression at 5 to 50 nM incubated for 24 hrs by Western blot analysis; assay type: cell-based
MDA-MB-231 [19] = experiment: Antiproliferative activity against human MDA-MB-231 cells assessed as reduction in cell proliferation incubated for 72 hrs by CellTiter-Glo reagent based assay; assay type: functional; details: MDA-MB-231, 72 h
[20] = Clearance in iv dosed rat; assay type: ADME, organism-based; details: in vivo
[21] = Half life in iv dosed rat; assay type: ADME, organism-based; details: in vivo
[22] = molecular target: Voltage-gated inwardly rectifying potassium channel KCNH2 (Homo sapiens, UniProt Q12809); experiment: Inhibition of human ERG by patch-clamp assay
[23] = Efflux ratio in human Caco2 cells at 10 uM by LC/MS/MS analysis; details: Caco-2, Ratio
[24] = AUC in iv dosed rat; assay type: ADME, organism-based; details: in vivo
[25] = Apparent permeability from apical to basolateral side in human Caco2 cells at 10 uM by LC/MS/MS analysis; details: Caco-2, Papp
[26] = Volume of distribution at steady state in iv dosed rat; assay type: ADME, organism-based; details: in vivo, read-out: Vdss

T1 sequence (P60842 whole entry): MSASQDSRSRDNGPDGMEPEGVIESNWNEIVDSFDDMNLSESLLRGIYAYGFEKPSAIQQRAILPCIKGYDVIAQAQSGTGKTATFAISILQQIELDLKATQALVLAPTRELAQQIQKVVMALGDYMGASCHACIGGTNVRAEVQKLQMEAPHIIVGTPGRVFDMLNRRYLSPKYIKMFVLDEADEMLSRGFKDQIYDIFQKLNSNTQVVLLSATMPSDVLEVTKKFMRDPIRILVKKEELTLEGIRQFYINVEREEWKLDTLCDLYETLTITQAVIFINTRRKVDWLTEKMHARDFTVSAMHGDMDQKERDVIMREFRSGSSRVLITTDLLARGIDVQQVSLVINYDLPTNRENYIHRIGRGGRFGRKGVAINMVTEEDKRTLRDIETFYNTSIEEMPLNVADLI
Sequence of Voltage-gated inwardly rectifying potassium channel KCNH2 (Q12809 whole entry): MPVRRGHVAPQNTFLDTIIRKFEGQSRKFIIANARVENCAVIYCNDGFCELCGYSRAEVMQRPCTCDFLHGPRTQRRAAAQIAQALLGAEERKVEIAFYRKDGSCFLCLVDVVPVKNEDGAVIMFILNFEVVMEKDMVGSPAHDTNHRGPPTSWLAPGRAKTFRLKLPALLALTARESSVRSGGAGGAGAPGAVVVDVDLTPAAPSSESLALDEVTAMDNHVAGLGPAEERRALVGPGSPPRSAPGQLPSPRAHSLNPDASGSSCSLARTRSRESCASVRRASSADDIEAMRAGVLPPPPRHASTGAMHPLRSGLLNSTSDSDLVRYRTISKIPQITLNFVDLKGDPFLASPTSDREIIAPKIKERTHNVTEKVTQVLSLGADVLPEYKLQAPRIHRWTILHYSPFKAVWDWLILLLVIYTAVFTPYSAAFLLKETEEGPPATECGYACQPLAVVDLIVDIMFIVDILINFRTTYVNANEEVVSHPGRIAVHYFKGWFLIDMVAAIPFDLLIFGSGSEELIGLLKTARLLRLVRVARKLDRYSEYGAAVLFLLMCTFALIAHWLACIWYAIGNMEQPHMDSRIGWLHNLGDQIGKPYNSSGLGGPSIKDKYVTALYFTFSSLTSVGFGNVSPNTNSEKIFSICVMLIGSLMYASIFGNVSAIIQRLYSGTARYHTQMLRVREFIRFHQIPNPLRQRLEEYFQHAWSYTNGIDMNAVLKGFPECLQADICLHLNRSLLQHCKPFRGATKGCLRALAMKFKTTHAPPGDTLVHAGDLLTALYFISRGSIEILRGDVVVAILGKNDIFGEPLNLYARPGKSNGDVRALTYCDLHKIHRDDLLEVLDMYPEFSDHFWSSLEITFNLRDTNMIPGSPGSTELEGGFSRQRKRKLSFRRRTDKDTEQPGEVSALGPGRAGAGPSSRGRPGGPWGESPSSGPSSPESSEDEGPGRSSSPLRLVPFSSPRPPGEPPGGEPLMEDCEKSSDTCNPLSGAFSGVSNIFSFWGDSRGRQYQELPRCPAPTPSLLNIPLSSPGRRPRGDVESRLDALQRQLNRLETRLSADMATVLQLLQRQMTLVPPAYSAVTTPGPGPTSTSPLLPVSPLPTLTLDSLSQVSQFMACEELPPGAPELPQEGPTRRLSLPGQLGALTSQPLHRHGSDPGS

`C[C@H]1C[C@@]2(O[C@H]3C[C@H]4[C@@H]5CC[C@H]6C[C@H](O)CC[C@]6(C)[C@H]5[C@@H](O)C[C@]4(C)[C@H]3[C@@]2(C)O)OC1(C)C` [HIPPURISTANOL] showed an IC50 [1] of 204 nM, an IC50 [2] of 369 nM and an IC50 [3] of 210 nM. The IC50 [4] was 426 nM.

For `COc1cc2c(c(OC)n1)[C@]1(O)[C@H](O)[C@H](CN(C)C)[C@@H](c3ccccc3)[C@]1(c1ccc(C#N)cc1)O2`, the Activity [5] was “inactive”, the inhibition (HAP1 [6]) was “inactive” and the inhibition [7] was “Active”. The inhibition (HAP1 [8]) was “inactive”, the T1/2 [9] was 38.5 min and the Activity (MDA-MB-231 [10]) was “Dose-dependent effect”. The inhibition [1] was “Dose-dependent effect”, the inhibition (Homo sapiens) was 54% and the T1/2 [11] was 1.32 min. For the same compound, the inhibition [2] was “Dose-dependent effect”, the inhibition [12] was “Dose-dependent effect” and the inhibition [13] was “Active”. The inhibition [3] was “Dose-dependent effect”, the inhibition [14] was “Dose-dependent effect” and the inhibition [4] was “Dose-dependent effect”. For the same compound, the Activity (MDA-MB-231 [15]) was “Dose-dependent effect”, the inhibition (HAP1 [16]) was “inactive” and the Activity (MDA-MB-231 [17]) was “Dose-dependent effect”. For the same compound, the inhibition [18] was “Dose-dependent effect”.

In the case of `C[C@@H]1C[C@@H]([C@H](O)CC2CC(=O)NC(=O)C2)C(=O)[C@@H](C)C1` [CYCLOHEXIMIDE], the IC50 [1] is reported as 142 nM, the IC50 [2] is reported as 101 nM and the IC50 [3] is reported as 87 nM. For the same compound, the IC50 [4] was 226 nM.

`COc1cncc2c1[C@]1(O)[C@H](O)[C@H](CN(C)C)[C@@H](c3ccccc3)[C@]1(c1ccc(C#N)cc1)O2` (stereo in doubt; (-)-37) gave an IC50 (MDA-MB-231 [19]) of 54 nM, a clearance [20] of 39 mL/min/kg and a half-life [21] of 174 min. For the same compound, the IC50 [22] was over 10 µM, the efflux ratio at 10 µM [23] was 22 and the AUC [24] was 440 ng·h/mL. It also gave a Papp A→B at 10 µM [25] of 0.21 ×10⁻⁶ cm/s and a Vd [26] of 5.2 L/kg.

Work on `COc1cc2c(c(OC)n1)[C@]1(O)[C@H](O)[C@H](CN(C)C)[C@@H](c3ccccc3)[C@]1(c1ccc(C#N)cc1)O2.Cl` yielded a solubility thermodynamic (physchem) of over 20 mg/mL.
